# In publication PMC10483858 (Molecular Cancer, 2023):
# Columns and labels:
# [1] = tested on: hPD-1/mPD-L1 immune checkpoint (Jurkat-ECs with B16-F10/TCRAct cells); conditions: ref [12]; cited from earlier work
# Description: To evaluate the bioactivity of the pAC65 peptide, cell-based immune checkpoint blockade assays, T-cell activation (TCA) assay, and a viability assay were performed.
# [2] = tested on: PD-L1/CD80 and PD-1/PD-L1 pathways; conditions: ref [14]; cited from earlier work
# [3] = tested on: hPD-1/hPD-L1 immune checkpoint (Jurkat-ECs with CHO/TCRAct/PD-L1 cells); assay: Immune checkpoint blockade (ICB) assay, hPD-1/hPD-L1 setup; type: cell-based, human; conditions: for blockade of hPD-1/hPD-L1, restored activation of Jurkat-ECs (in words): 24-hour incubation, in parallel to hPD-1/mPD-L1 assay, Fig. 2C
# Description: (§1) The peptide was tested along with three therapeutic antibodies, atezolizumab, avelumab, and durvalumab.
# (§2) Data points represent mean ± SD values from 4–6 independent experiments. […] Triton X-100-treated cells and cells without the addition of a Redox Dye were used as baseline controls. […] In the assay, three antibodies (atezo. – atezolizumab, ave. – avelumab, durva. – durvalumab) and the peptide pAC65 were used. […] The graphs show fractions of positive cells and represent cumulative data from 3–4 donors.
# These cell lines were cultured in RPMI 1640 medium (Biowest) supplemented with 10% fetal bovine serum (FBS, Biowest) and […] L-glutamine (Biowest). The selection antibiotics: G418 (250 μg/mL, InvivoGen) and Hygromycin B Gold (50 μg/mL, InvivoGen) were also added to the culture medium as per application.
# The assay was performed according to the manufacturer’s protocol (Promega). […] The dilutions of monoclonal antibodies were prepared in the assay buffer. Followed by a 6-hour (routinely) or 24-hour (for testing bioactivity in parallel to the hPD-1/mPD-L1 ICB assay) incubation at 37°C and 5% CO2, and an additional 20 min of incubation with the luminescence reagent (Bio-Glo™ Luciferase Assay System, Promega) at room temperature, activation of Jurkat ECs, reflected by luciferase activity, was monitored by luminescence measurements on a Spark microplate reader (Tecan). […] Data points represent mean ± SD values from four to eight independent experiments. EC50 values as half-maximal effective concentrations were calculated from the Hill curve fitting to the experimental data using Origin Pro 2020 software (OriginLab).
# [4] = tested on: hPD-1/mPD-L1 immune checkpoint (Jurkat-ECs with B16-F10/TCRAct cells); assay: Immune checkpoint blockade (ICB) assay, hPD-1/mPD-L1 setup; type: cell-based, human (hPD-1); conditions: B16-F10/TCRAct cells treated with 20 ng/ml mouse IFN-γ for 48 h; 24 h co-culture, Fig. 2D; three independent experiments
# Description: as §1, §2
# Mouse skin melanoma B16-F10 cell line was purchased from the American Type Culture Collection (ATCC) and cultured in RPMI 1640 medium (Biowest) supplemented with 10% fetal bovine serum (FBS, Biowest) and […] L-glutamine (Biowest). The generation of the B16-F10 cells overexpressing TCR-Activator (maAPCs) clone 3A5 was described in our previous work (Magiera-Mularz et al., 2021). […]
# B16-F10/TCRAct cells (maAPCs) were seeded on 96-well white bottom plates at the density of 2,000 cells/well and treated with 20 ng/ml of mouse recombinant IFN-γ (Thermo Fisher Scientific) for 48 hours before the ICB assay. […] After 24 hours (37°C, 5% CO2) and 20 min of additional incubation with the luminescence reagent (Bio-Glo™ Luciferase Assay System, Promega) at room temperature, activation of Jurkat ECs was monitored by luminescence measurements on a Spark microplate reader (Tecan). […]
molecule,measurement,setting,value
Cc1cc(CN[C@H](CO)C(=O)O)c(OCc2cccc(C#N)c2)cc1OCc1cccc(-c2ccc3c(c2)OCCO3)c1C [BMS-1001],specificity towards hPD-L1 / failure to target mouse PD-L1 (previous studies),[1],specificity towards the hPD-L1 protein
atezolizumab: therapeutic PD-L1-blocking monoclonal antibody (Selleckchem),blocking of both PD-L1/CD80 and PD-1/PD-L1 pathways,[2],Blocking of both PD-L1/CD80 and PD-1/PD-L1 pathways has also been documented
same,"blockade of hPD-1/hPD-L1, restored activation of Jurkat-ECs (in words)",[3],efficiently blocked the hPD-1/hPD-L1 immune checkpoint
same,EC50,"[3]; luciferase luminescence, 6-hour incubation (routinely), 37°C, 5% CO2, 0.1% DMSO (pAC65), Hill fit, 4–6 independent experiments, read-out: EC50, activation of Jurkat-ECs",140 pM
avelumab: therapeutic PD-L1-blocking monoclonal antibody (MedChemExpress),blocking of both PD-L1/CD80 and PD-1/PD-L1 pathways,[2],Blocking of both PD-L1/CD80 and PD-1/PD-L1 pathways has also been documented
same,"blockade of hPD-1/mPD-L1, restored activation of Jurkat-ECs (in words)",[4],restored the activation of Jurkat-ECs blocked with either the hPD-L1-expressing or mPD-L1 expressing cells
same,"blockade of hPD-1/hPD-L1, restored activation of Jurkat-ECs (in words)",[3],restored the activation of Jurkat-ECs blocked with either the hPD-L1-expressing or mPD-L1 expressing cells
durvalumab: therapeutic PD-L1-blocking monoclonal antibody (Selleckchem),blocking of both PD-L1/CD80 and PD-1/PD-L1 pathways,[2],Blocking of both PD-L1/CD80 and PD-1/PD-L1 pathways has also been documented
same,"blockade of hPD-1/mPD-L1, restored activation of Jurkat-ECs (in words)",[4],atezolizumab but not durvalumab was able to block the hPD-1/mPD-L1 immune checkpoint
same,"blockade of hPD-1/hPD-L1, restored activation of Jurkat-ECs (in words)",[3],efficiently blocked the hPD-1/hPD-L1 immune checkpoint
Cc1c(COc2cc(OCc3cccc(C#N)c3)c(CN3C[C@H](O)C[C@@H]3C(=O)O)cc2Cl)cccc1-c1ccc2c(c1)OCCO2 [BMS-1166],specificity towards hPD-L1 / failure to target mouse PD-L1 (previous studies),[1],specificity towards the hPD-L1 protein
